Starred links: 1 amine or outer side, 2 acyl side, 3 side chain; linkers in the order of their positions; H or OH if unused. Non-standard residues stand in square brackets, D forms with d. Residues, ends and D or L forms follow the SMILES beside them. Groups on a side chain read outwards from the residue. *: point of attachment. X1 = COc1cc2c(cc1-c1cccc(N*)c1)-c1c(c(C(=O)N3CCOCC3(C)C)nn1-c1cc(Cl)cc(Cl)c1)CO2; DOTA = O=C(O)CN1CCN(CC(=O)O)CCN(CC(=O)*)CCN(CC(=O)O)CC1; Suc = O=C(CCC(=O)[*:2])[*:1]; Sar = CNCC(=O)O

In one experiment the target is T1, human follicle-stimulating hormone receptor (FSHR) (Homo sapiens, UniProt P23945).
T1 construct: host or cells: CHO-K1
T1 sequence (P23945 18-695): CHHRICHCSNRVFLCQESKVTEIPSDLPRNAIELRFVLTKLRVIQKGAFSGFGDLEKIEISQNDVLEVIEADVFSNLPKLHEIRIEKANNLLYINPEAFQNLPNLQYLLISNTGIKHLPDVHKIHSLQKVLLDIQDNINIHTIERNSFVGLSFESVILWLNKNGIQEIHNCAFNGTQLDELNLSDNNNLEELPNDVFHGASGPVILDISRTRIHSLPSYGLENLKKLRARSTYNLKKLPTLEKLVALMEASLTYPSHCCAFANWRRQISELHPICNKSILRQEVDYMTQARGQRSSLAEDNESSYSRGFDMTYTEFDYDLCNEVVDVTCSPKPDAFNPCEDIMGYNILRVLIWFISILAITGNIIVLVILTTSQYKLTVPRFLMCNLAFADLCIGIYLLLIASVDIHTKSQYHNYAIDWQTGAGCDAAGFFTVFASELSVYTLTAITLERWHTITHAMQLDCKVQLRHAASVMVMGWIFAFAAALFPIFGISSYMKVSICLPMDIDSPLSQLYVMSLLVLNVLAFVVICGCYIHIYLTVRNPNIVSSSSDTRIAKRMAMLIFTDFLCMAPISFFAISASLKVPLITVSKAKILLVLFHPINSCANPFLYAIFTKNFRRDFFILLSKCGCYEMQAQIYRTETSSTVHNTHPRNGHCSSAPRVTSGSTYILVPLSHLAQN
Briefly: Measurement of agonist cAMP production by activation of human FSHR. The class given is cell-based. Particulars: CHO-K1 human FSHR cells, 30 minutes at 37° C., HTRF cAMP kit; read-out: hFSHR Agonist cAMP EC50. In outline:
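cAMP output was measured by HTRF after 30 min at 37 °C agonist exposure (0–10,000 nM final) in stably FSHR-transfected CHO-K1 cells. Lysate cAMP was read off a standard curve and fitted to obtain half-maximal EC50.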
In general, EC50 refers to the concentration at which the effect is half-maximal. As for `COc1cc2c(cc1-c1cccc(NC(=O)CCC(=O)NCCCC[C@@H](NC(=O)[C@@H](C)NC(=O)CN3CCN(CC(=O)O)CCN(CC(=O)O)CCN(CC(=O)O)CC3)C(=O)N[C@H](CCC(=O)O)C(=O)N[C@H](CCC(=O)O)C(=O)N[C@H](CCC(=O)O)C(=O)N[C@H](CCC(=O)O)C(=O)N[C@H](C)C(N)=O)c1)-c1c(c(C(=O)N3CCOCC3(C)C)nn1-c1cc(Cl)cc(Cl)c1)CO2` [Compound 87, 2,2′,2″-(10-((4R,7R,10R,13R,16R,19R,22R)-23-amino-10,13,16,19-tetrakis(2carboxyethyl)-7-(4-(4-((3-(1-(3,5-dichlorophenyl)-3-(3,3-dimethylmorpholine-4-carbonyl)-7-methoxy-1,4-dihydrochromeno|4,3-c|pyrazol-8-yl)phenyl)amino)-4-oxobutanamido)butyl)-4,22-dimethyl-2,5,8,11,14,17,20,23-octaoxo-3,6,9,12,15,18,21-heptaazatricosyl)-1,4,7,10-tetraazacyclododecane-1,4,7-triyl)triacetic acid] ({DOTA}-[dA][dK]([Suc-X1])[dE][dE][dE][dE][dA]-NH2), the EC50 was in the range of 0.01 to 0.1 µM.
With `COc1cc2c(cc1-c1cccc(NC(=O)CCC(=O)NCCCC[C@@H](NC(=O)[C@@H](CCC(=O)O)NC(=O)[C@@H](CCC(=O)O)NC(=O)[C@@H](C)NC(=O)CN3CCN(CC(=O)O)CCN(CC(=O)O)CCN(CC(=O)O)CC3)C(=O)N[C@H](CCC(=O)O)C(=O)N[C@H](CCC(=O)O)C(=O)N[C@H](C)C(N)=O)c1)-c1c(c(C(=O)N3CCOCC3(C)C)nn1-c1cc(Cl)cc(Cl)c1)CO2` [Compound 88] ({DOTA}-[dA][dE][dE][dK]([Suc-X1])[dE][dE][dA]-NH2), the half-maximal effective concentration (EC50) is 0.01 to 0.1 µM.
In the case of `COc1cc2c(cc1-c1cccc(NC(=O)CCC(=O)NCCCC[C@@H](NC(=O)[C@@H](CCC(=O)O)NC(=O)[C@@H](CCCNC(=N)N)NC(=O)[C@@H](C)NC(=O)CN3CCN(CC(=O)O)CCN(CC(=O)O)CCN(CC(=O)O)CC3)C(=O)N[C@H](CCCNC(=N)N)C(=O)N[C@H](CCCNC(=N)N)C(=O)N[C@H](C)C(N)=O)c1)-c1c(c(C(=O)N3CCOCC3(C)C)nn1-c1cc(Cl)cc(Cl)c1)CO2` [Compound 89] ({DOTA}-[dA][dR][dE][dK]([Suc-X1])[dR][dR][dA]-NH2), the EC50 was 0.01 to 0.1 µM.
Consider `COc1cc2c(cc1-c1cccc(NC(=O)CCC(=O)NCCCC[C@@H](NC(=O)[C@@H](CCC(=O)O)NC(=O)[C@@H](CCC(=O)O)NC(=O)[C@@H](CCC(=O)O)NC(=O)[C@@H](CCC(=O)O)NC(=O)[C@@H](C)NC(=O)CN3CCN(CC(=O)O)CCN(CC(=O)O)CCN(CC(=O)O)CC3)C(=O)N[C@H](C)C(N)=O)c1)-c1c(c(C(=O)N3CCOCC3(C)C)nn1-c1cc(Cl)cc(Cl)c1)CO2` [Compound 90, 2,2′,2″-(10-((4R,7R,10R,13R,16R,19R)-19-(((R)-1-amino-1-oxopropan-2yl)carbamoyl)-7,10,13,16-tetrakis(2-carboxyethyl)-28-((3-(1-(3,5-dichlorophenyl)-3-(3,3-dimethylmorpholine-4-carbonyl)-7-methoxy-1,4-dihydrochromeno|4,3-clpyrazol-8-yl)phenyl)amino)-4-methyl-2,5,8,11,14,17,25,28-octaoxo-3,6,9,12,15,18,24-heptaazaoctacosyl)-1,4,7,10-tetraazacyclododecane-1,4,7-triyl)triacetic acid] ({DOTA}-[dA][dE][dE][dE][dE][dK]([Suc-X1])[dA]-NH2), for which the EC50 fell in the range of 0.01 to 0.1 µM.
As for `COc1cc2c(cc1-c1cccc(NC(=O)CCC(=O)NCCCC[C@@H](NC(=O)[C@@H](C)NC(=O)[C@@H](C)NC(=O)[C@@H](CC(N)=O)NC(=O)[C@@H](CC(=O)O)NC(=O)[C@@H](CCCNC(=N)N)NC(=O)[C@@H](C)NC(=O)CN3CCN(CC(=O)O)CCN(CC(=O)O)CCN(CC(=O)O)CC3)C(N)=O)c1)-c1c(c(C(=O)N3CCOCC3(C)C)nn1-c1cc(Cl)cc(Cl)c1)CO2` [Compound 91] ({DOTA}-[dA][dR][dD][dN][dA][dA][dK]([Suc-X1])-NH2), the concentration for a half-maximal effect (EC50) lay in the range of 0.01 to 0.1 µM.
Regarding `COc1cc2c(cc1-c1cccc(NC(=O)CCC(=O)N[C@H](C)C(=O)N[C@H](CCC(=O)O)C(=O)N[C@H](CCC(=O)O)C(=O)N[C@H](CCC(=O)O)C(=O)N[C@H](CCC(=O)O)C(=O)N[C@H](CCCCNC(=O)CN3CCN(CC(=O)O)CCN(CC(=O)O)CCN(CC(=O)O)CC3)C(=O)N[C@H](C)C(N)=O)c1)-c1c(c(C(=O)N3CCOCC3(C)C)nn1-c1cc(Cl)cc(Cl)c1)CO2` [Compound 92, 2,2′,2″-(10-((8R,11R,14R,17R,20R,23R)-8-(((R)-1-amino-1-oxopropan-2yl)carbamoyl)-11,14,17,20-tetrakis(2-carboxyethyl)-28-((3-(1-(3,5-dichlorophenyl)-3-(3,3-dimethylmorpholine-4-carbonyl)-7-methoxy-1,4-dihydrochromeno[4,3-c]pyrazol-8-yl)phenyl)amino)-23-methyl-2,10,13,16,19,22,25,28-octaoxo-3,9,12,15,18,21,24-heptaazaoctacosyl)-1,4,7,10-tetraazacyclododecane-1,4,7-triyl)triacetic acid] ({X1-Suc}-[dA][dE][dE][dE][dE][dK](DOTA)[dA]-NH2), the EC50 was 0.01 to 0.1 µM.
As for `COc1cc2c(cc1-c1cncc(NC(=O)CCNC(=O)[C@@H](CC(=O)O)NC(=O)[C@@H](CC(=O)O)NC(=O)CC[C@@H](NC(=O)CN3CCN(CC(=O)O)CCN(CC(=O)O)CCN(CC(=O)O)CC3)C(=O)O)c1)-c1c(c(C(=O)N3CCOCC3(C)C)nn1-c1cc(Cl)cc(Cl)c1)CO2` [Compound 93], the concentration for a half-maximal effect (EC50) fell in the range of 0.01 to 0.1 µM.
As for `COc1cc2c(cc1-c1cncc(NC(=O)CCNC(=O)[C@@H](CC(=O)O)NC(=O)[C@@H](CC(=O)O)NC(=O)CN3CCN(CC(=O)O)CCN(CC(=O)O)CCN(CC(=O)O)CC3)c1)-c1c(c(C(=O)N3CCOCC3(C)C)nn1-c1cc(Cl)cc(Cl)c1)CO2` [Compound 94], the EC50 was in the range of 0.01 to 0.1 µM.
Turning to `COc1cc2c(cc1-c1cccc(NC(=O)CCC(=O)NCCCC[C@@H](NC(=O)[C@@H](CO)NC(=O)[C@@H](CC(N)=O)NC(=O)[C@@H](C)NC(=O)CN3CCN(CC(=O)O)CCN(CC(=O)O)CCN(CC(=O)O)CC3)C(=O)N[C@H](CC(N)=O)C(=O)N[C@H](CO)C(=O)N[C@H](C)C(N)=O)c1)-c1c(c(C(=O)N3CCOCC3(C)C)nn1-c1cc(Cl)cc(Cl)c1)CO2` [Compound 97] ({DOTA}-[dA][dN][dS][dK]([Suc-X1])[dN][dS][dA]-NH2), the EC50 is 0.01 to 0.1 µM.
Consider `COc1cc2c(cc1-c1cccc(NC(=O)CCC(=O)N(C)CC(=O)N(C)CC(=O)N(C)CC(=O)N[C@H](CCCCNC(=O)CN3CCN(CC(=O)O)CCN(CC(=O)O)CCN(CC(=O)O)CC3)C(=O)N[C@H](CCC(=O)O)C(=O)N[C@H](Cc3ccc(O)cc3)C(=O)N[C@H](CCCCN)C(=O)N[C@H](CCC(=O)O)C(=O)N[C@H](CCC(=O)O)C(=O)N[C@H](CCC(=O)O)C(=O)N[C@H](CCC(=O)O)C(=O)N[C@H](CCCCN)C(N)=O)c1)-c1c(c(C(=O)N3CCOCC3(C)C)nn1-c1cc(Cl)cc(Cl)c1)CO2` [Compound 98] ({X1-Suc}-[Sar][Sar][Sar][dK](DOTA)[dE][dY][dK][dE][dE][dE][dE][dK]-NH2), for which the EC50 is 0.01 to 0.1 µM.
As for `COc1cc2c(cc1-c1cncc(NC(=O)CCNC(=O)[C@@H](CC(=O)O)NC(=O)[C@@H](CC(=O)O)NC(=O)[C@H](N)CCCNC(=O)CN3CCN(CC(=O)O)CCN(CC(=O)O)CCN(CC(=O)O)CC3)c1)-c1c(c(C(=O)N3CCOCC3(C)C)nn1-c1cc(Cl)cc(Cl)c1)CO2` [Compound 99, 2,2′,2″-(10-((7R,10R,13R)-7-amino-10,13-bis(carboxymethyl)-18-((5-(1-(3,5dichlorophenyl)-3-(3,3-dimethylmorpholine-4-carbonyl)-7-methoxy-1,4-dihydrochromeno|4,3-c|pyrazol-8-yl)pyridin-3-yl)amino)-2,8,11,14,18-pentaoxo-3,9,12,15-tetraazaoctadecyl)-1,4,7,10-tetraazacyclododecane-1,4,7-triyl)triacetic acid], the 50% effective concentration (EC50) was 0.01 to 0.1 µM.

Staying with this experiment, now noted: hFSHR Agonist cAMP EC50, CHO-K1 human FSHR cells, 30 minutes at 37° C., HTRF cAMP kit.
With `COc1cc2c(cc1-c1cccc(NC(=O)CCC(=O)NCCCC[C@@H](NC(=O)[C@@H](C)NC(=O)[C@@H](CCC(=O)O)NC(=O)[C@@H](C)NC(=O)[C@@H](CCC(=O)O)NC(=O)[C@@H](C)NC(=O)CN3CCN(CC(=O)O)CCN(CC(=O)O)CCN(CC(=O)O)CC3)C(=O)N[C@H](C)C(N)=O)c1)-c1c(c(C(=O)N3CCOCC3(C)C)nn1-c1cc(Cl)cc(Cl)c1)CO2` [Compound 95], the EC50 was 0.01 to 0.1 µM.

The values are drawn from patent US20260137819A1 (Radionetics Oncology, Inc., priority 2022, published 2026).
